Read-outs that look alike come from different tables or passages of the source.
Experiments:
Bacillus cereus = test: Test Example 2: preventing formation of bacterial CGC in vitro (K-B method); type: cell-based
Method: (§1) E. coli (No. 33310, purchased from Chengdu Institute of Biological Products, the Ministry of Public Health) was used in the tests. Grid design was performed by using antibiotic with different concentrations and N-acetyl-D-glucosamine having an amount of from 10 mg to 300 mg. Streak plates were conducted separately, and K-B method was employed for drugs. Colonies at marginal part of drug inhibition zone were picked and were observed under microscope. If cell length was more than 50 μm and cell number was more than 5 in each visual field, it was deemed as CGC positive and was marked with “+”; while if cell length was not greater than 50 μm and cell number was within the range from 0 to 4 in each visual field, it was deemed as CGC negative and was marked with “−”. At this time, the ratio of two substances was called “effective ratio”.
(§2) Effects tests of compound preparation comprising N-acetyl-D-glucosamine and antibiotics for preventing the formation of bacterial CGC in vitro.
(§3) The tests were carried out in vitro, wherein gram-negative amphimicrodes, gram-negative anaerobes and gram-positive aerobes were separately coated on streak plates, test drugs and control drugs were separately dissolved with same volume of sterile water for injection, 10 μl of each drug was used for preparing drug-sensitive paper, K-B method was employed in the tests of drugs, and the inhibition situations of CGC formation were observed.

Bacillus proteus = test: as above; type: cell-based
Method: as §1, §2, §3

Bacteroides fragilis = test: as above; type: cell-based
Method: as §1, §2, §3

Citro Bacter = test: as above; type: cell-based
Method: as §1, §2, §3

Diphtheroid bacillus = test: as above; type: cell-based
Method: as §1, §2, §3

E. coli = test: as above; type: cell-based
Method: as §1, §2, §3

Klebsiella = test: as above; type: cell-based
Method: as §1, §2, §3

Listeria = test: as above; type: cell-based
Method: as §1, §2, §3

Nucleic Acid Bacter = test: as above; type: cell-based
Method: as §1, §2, §3

[1] = tested on: rats infected and not infected by Bacillus typhi murium; type: in vivo, Wistar rats; settings: rats infected or not by Bacillus typhi murium, consecutive week, 15 rats per group
[2] = tested on: irritable bowel syndrome (IBS) caused by bacterial CGC; test: Test Example 5: preventing irritable bowel syndrome (IBS) caused by bacterial CGC; type: in vivo, rats; settings: for CGCs in the rat stools after one week of drug withdrawal / CGCs in the stools of the rats: rats, effective dosage for consecutive 10 days, 30 rats per group; for CGCs in the stools of the rats: stools observed during administration and within 1 week after drug withdrawal
Source text: On this basis, the rats were subjected to stimulations such as electric stimulation, intragastric administration with fructus zanthoxyli water, cold, constraint etc. in order to induce IBS, and the incidence rates of IBS of two groups were observed.

[3] = compound injection 100 mg N-acetyl-D-glucosamine + 300 mg kanamycin, control kanamycin same dose
[4] = first of three values given respectively: electric stimulation
[5] = second of three values given respectively: intragastric administration with fructus zanthoxyli water
[6] = third of three values given respectively: cold, constraint etc.
[7] = compound preparation N-acetyl-D-glucosamine (100 mg) and lincomycin (400 mg), control lincomycin (400 mg)
[8] = compound preparation N-acetyl-D-glucosamine (50 mg) and tetracycline (150 mg), control tetracycline (150 mg)

NC[C@H]1O[C@H](O[C@H]2[C@H](O)[C@@H](O[C@H]3O[C@H](CO)[C@@H](O)[C@H](N)[C@H]3O)[C@H](N)C[C@@H]2N)[C@H](O)[C@@H](O)[C@@H]1O [Kanamycin, kanamycin]
CGC formation (Bacillus cereus; [3]): + (If cell length was more than 50 μm and cell number was more than 5 in each visual field, it was deemed as CGC positive and was marked with “+”)
CGC formation (Bacillus proteus; [3]): + (If cell length was more than 50 μm and cell number was more than 5 in each visual field, it was deemed as CGC positive and was marked with “+”)
CGC formation (Bacteroides fragilis; [3]): + (If cell length was more than 50 μm and cell number was more than 5 in each visual field, it was deemed as CGC positive and was marked with “+”)
CGC formation (Citro Bacter; [3]): + (If cell length was more than 50 μm and cell number was more than 5 in each visual field, it was deemed as CGC positive and was marked with “+”)
CGC formation (Diphtheroid bacillus; [3]): + (If cell length was more than 50 μm and cell number was more than 5 in each visual field, it was deemed as CGC positive and was marked with “+”)
CGC formation (E. coli; [3]): + (If cell length was more than 50 μm and cell number was more than 5 in each visual field, it was deemed as CGC positive and was marked with “+”)
CGC formation (Klebsiella; [3]): + (If cell length was more than 50 μm and cell number was more than 5 in each visual field, it was deemed as CGC positive and was marked with “+”)
CGC formation (Listeria; [3]): + (If cell length was more than 50 μm and cell number was more than 5 in each visual field, it was deemed as CGC positive and was marked with “+”)
CGC formation (Nucleic Acid Bacter; [3]): + (If cell length was more than 50 μm and cell number was more than 5 in each visual field, it was deemed as CGC positive and was marked with “+”)
positive rates of stool CGC and intestinal mucosa CGC ([1]; N-acetyl-D-glucosamine (100 mg)+kanamycin (200 mg) vs only kanamycin): 100%
incidence rate of IBS [2, 4]: 33%
incidence rate of IBS [2, 5]: 33%
incidence rate of IBS [2, 6]: 33%

CCC[C@@H]1C[C@@H](C(=O)N[C@@H]([C@H]2O[C@H](SC)[C@H](O)[C@@H](O)[C@H]2O)[C@@H](C)O)N(C)C1 [Lincomycin, lincomycin]
CGC formation (Bacillus cereus; [7]): + (If cell length was more than 50 μm and cell number was more than 5 in each visual field, it was deemed as CGC positive and was marked with “+”)
CGC formation (Bacillus proteus; [7]): + (If cell length was more than 50 μm and cell number was more than 5 in each visual field, it was deemed as CGC positive and was marked with “+”)
CGC formation (Bacteroides fragilis; [7]): + (If cell length was more than 50 μm and cell number was more than 5 in each visual field, it was deemed as CGC positive and was marked with “+”)
CGC formation (Citro Bacter; [7]): + (If cell length was more than 50 μm and cell number was more than 5 in each visual field, it was deemed as CGC positive and was marked with “+”)
CGC formation (Diphtheroid bacillus; [7]): + (If cell length was more than 50 μm and cell number was more than 5 in each visual field, it was deemed as CGC positive and was marked with “+”)
CGC formation (E. coli; [7]): + (If cell length was more than 50 μm and cell number was more than 5 in each visual field, it was deemed as CGC positive and was marked with “+”)
CGC formation (Klebsiella; [7]): + (If cell length was more than 50 μm and cell number was more than 5 in each visual field, it was deemed as CGC positive and was marked with “+”)
CGC formation (Listeria; [7]): + (If cell length was more than 50 μm and cell number was more than 5 in each visual field, it was deemed as CGC positive and was marked with “+”)
CGC formation (Nucleic Acid Bacter; [7]): + (If cell length was more than 50 μm and cell number was more than 5 in each visual field, it was deemed as CGC positive and was marked with “+”)
positive rates of stool CGC and intestinal mucosa CGC ([1]; N-acetyl-D-glucosamine (100 mg)+lincomycin (400 mg) vs only lincomycin): 100%
incidence rate of IBS [2, 4]: 33%
CGCs in the rat stools after one week of drug withdrawal [2]: still present
CGCs in the stools of the rats [2]: a large amount of CGCs appeared
incidence rate of IBS [2, 5]: 33%
incidence rate of IBS [2, 6]: 33%

CN(C)C1C(O)=C(C(N)=O)C(=O)C2(O)C(O)=C3C(=O)c4c(O)cccc4C(C)(O)C3CC12 (stereo not shown) [Tetracyclin, tetracycline]
CGC formation (Bacillus cereus; [8]): + (If cell length was more than 50 μm and cell number was more than 5 in each visual field, it was deemed as CGC positive and was marked with “+”)
CGC formation (Bacillus proteus; [8]): + (If cell length was more than 50 μm and cell number was more than 5 in each visual field, it was deemed as CGC positive and was marked with “+”)
CGC formation (Bacteroides fragilis; [8]): + (If cell length was more than 50 μm and cell number was more than 5 in each visual field, it was deemed as CGC positive and was marked with “+”)
CGC formation (Citro Bacter; [8]): + (If cell length was more than 50 μm and cell number was more than 5 in each visual field, it was deemed as CGC positive and was marked with “+”)
CGC formation (Diphtheroid bacillus; [8]): + (If cell length was more than 50 μm and cell number was more than 5 in each visual field, it was deemed as CGC positive and was marked with “+”)
CGC formation (E. coli; [8]): + (If cell length was more than 50 μm and cell number was more than 5 in each visual field, it was deemed as CGC positive and was marked with “+”)
CGC formation (Klebsiella; [8]): + (If cell length was more than 50 μm and cell number was more than 5 in each visual field, it was deemed as CGC positive and was marked with “+”)
CGC formation (Listeria; [8]): + (If cell length was more than 50 μm and cell number was more than 5 in each visual field, it was deemed as CGC positive and was marked with “+”)
CGC formation (Nucleic Acid Bacter; [8]): + (If cell length was more than 50 μm and cell number was more than 5 in each visual field, it was deemed as CGC positive and was marked with “+”)
positive rates of stool CGC and intestinal mucosa CGC ([1]; N-acetyl-D-glucosamine (150 mg)+tetracycline (150 mg) vs only tetracycline): 100%
incidence rate of IBS [2, 4]: 33%
CGCs in the rat stools after one week of drug withdrawal [2]: still present
CGCs in the stools of the rats [2]: a large amount of CGCs appeared
incidence rate of IBS [2, 5]: 33%
incidence rate of IBS [2, 6]: 33%

Reference: US20070191291A1, “Compound antibacterial drugs comprising n-acetyl-d-glucosamine” (priority 2003, published 2007)
